A word on the IC50: it is the concentration that gives 50% inhibition. Usually melting point stands for the temperature, or range, at which the solid turns liquid.

One data set concerns the target T1, progesterone receptor (Homo sapiens, UniProt P06401).
T1 construct: determining a compound's effect on alkaline phosphatase activity in T47D cells; endogenous in cells; host or cells: T47D cells
T1 sequence (P06401 1-933): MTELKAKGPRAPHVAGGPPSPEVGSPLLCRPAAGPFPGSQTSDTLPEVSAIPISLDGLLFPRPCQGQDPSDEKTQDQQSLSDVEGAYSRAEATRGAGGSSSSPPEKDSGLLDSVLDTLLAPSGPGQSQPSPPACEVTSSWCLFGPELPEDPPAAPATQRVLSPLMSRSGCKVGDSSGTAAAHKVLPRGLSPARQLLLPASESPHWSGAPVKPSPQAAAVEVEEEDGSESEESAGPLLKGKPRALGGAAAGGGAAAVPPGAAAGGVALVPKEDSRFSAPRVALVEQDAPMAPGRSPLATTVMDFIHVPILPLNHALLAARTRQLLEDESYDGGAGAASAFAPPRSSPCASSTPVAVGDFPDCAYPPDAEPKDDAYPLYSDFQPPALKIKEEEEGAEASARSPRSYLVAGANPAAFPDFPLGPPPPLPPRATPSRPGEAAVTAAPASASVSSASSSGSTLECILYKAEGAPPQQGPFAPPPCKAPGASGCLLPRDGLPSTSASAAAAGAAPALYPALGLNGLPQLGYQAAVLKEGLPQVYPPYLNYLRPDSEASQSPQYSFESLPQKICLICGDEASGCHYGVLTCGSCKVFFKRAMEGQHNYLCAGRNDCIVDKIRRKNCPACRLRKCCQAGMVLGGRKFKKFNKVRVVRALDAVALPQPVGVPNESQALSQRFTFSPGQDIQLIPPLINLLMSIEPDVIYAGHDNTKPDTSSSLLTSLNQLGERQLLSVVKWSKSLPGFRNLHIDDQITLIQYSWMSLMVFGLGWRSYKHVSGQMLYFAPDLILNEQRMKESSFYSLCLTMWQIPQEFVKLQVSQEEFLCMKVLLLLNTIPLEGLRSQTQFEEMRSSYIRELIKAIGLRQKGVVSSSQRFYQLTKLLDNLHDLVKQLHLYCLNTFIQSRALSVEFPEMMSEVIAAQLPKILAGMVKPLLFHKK
Kind of data set: Alkaline phosphatase activity in T47D cells (progestin antagonist mode). The format is cell-based. The note with it: in the presence of 1 nM progesterone, 24 h, read-out: T47D Alkaline Phosphatase Activity IC50 (nM) or % inhibition. How it is done: (1) Effects of Progestins and Antiprogestins on Alkaline Phosphatase Activity in T47D Cells
PURPOSE: To identify progestins or antiprogestins by determining a compound's effect on alkaline phosphatase activity in T47D cells.
Culture medium: • DMEM:F12 (1:1) (GIBCO, BRL) supplemented with 5% (v/v) charcoal stripped fetal bovine serum (not heat-inactivated), 100 U/mL penicillin, 100 μg/mL streptomycin, and 2 mM the GlutaMax™ reagent (GIBCO, BRL).
Alkaline phosphatase assay buffer: • I. 0.1M Tris-HCl, pH 9.8, containing 0.2% the Triton® X-100 reagent • II. 0.1M Tris-HCl, pH 9.8, containing 4 mM p-nitrophenyl phosphate (Sigma). B. Cell Culture and Treatment:
Frozen T47D cells were thawed in a 37° C. water bath and diluted to 280,000 cells/mL in culture medium. To each well in a 96-well plate (Falcon, Becton Dickinson Labware), 180 μL of diluted cell suspension was added.
Twenty μL of reference or test compounds diluted in the culture medium was then added to each well. When testing for progestin antagonist activity, reference antiprogestins or test compounds were added in the presence of 1 nM progesterone. The cells were incubated at 37° C. in a 5% CO2/humidified atmosphere for 24 h.
NOTE: For high throughput screening, one concentration of each compound was tested at 0.3 μg/mL. Based on an average molecular weight of 300 g/mol for the compounds in the library, the concentration was approximately 1 μM. Subsequently, active compounds were tested in dose response assays to determine EC50 and IC50. C. Alkaline Phosphatase Enzyme Assay:
At the end of treatment, the medium was removed from the plate. Fifty μL of assay buffer I was added to each well. The plates were shaken in a titer plate shaker for 15 min. Then 150 μL of assay buffer II was added to each well. Optical density measurements were taken at 5 min intervals for 30 min at a test wavelength of 405 nm.
For reference and test compounds, a dose response curve was generated for dose (X-axis) vs. the rate of enzyme reaction (slope) (Y-axis). Square root-transformed data was used for analysis of variance and nonlinear dose response curve fitting for both agonist and antagonist modes. Huber weighting was used to down-weight the effects of outliers. EC50 or IC50 values were calculated from the retransformed values. JMP software (SAS Institute, Inc.) was used for both one-way analysis of variance and non-linear dose response analysis in both single dose and dose response studies.
Progesterone and trimegestone were reference progestins and RU486 was the reference antiprogestin. All reference compounds were run in full dose response curves and the EC50 and IC50 values were calculated.
For `CN1CC(C)(C)N(c2nc(-c3ccc(C#N)cc3)cs2)C1=O` [Example 8, 4-[2-(3,5,5-Trimethyl-2-oxoimidazolidin-1-yl)-1,3-thiazol-4-yl]benzonitrile], the half-inhibitory concentration (IC50) was found to be 35.4 nM.

Regarding `CN1CCN(c2nc(-c3ccc(Br)cc3)cs2)C1=O` [Example 5, 1-[4-(4-Bromophenyl)-1,3-thiazol-2-yl]-3-methylimidazolidin-2-one], the half-maximal inhibitory concentration (IC50) was 733 nM.

Regarding `CC1(C)CN(Cc2ccccc2)C(=O)N1c1nc(-c2ccc(C#N)cc2)cs1` [Example 9, 4-[2-(3-Benzyl-5,5-dimethyl-2-oxoimidazolidin-1-yl)-1,3-thiazol-4-yl]benzonitrile], the IC50 was found to be 77.9 nM.

Take `O=C1NCCN1c1nc(-c2ccc(Br)cc2)cs1` [Example 4, 1-[4-(4-Bromophenyl)-1,3-thiazol-2-yl]imidazolidin-2-one]: the IC50 came out at 1070 nM.

Test system in another data set: not given
Test: not given
Conditions: not given
The compound `CC1(C)COC(=O)N1c1nc(-c2cccc(C#N)c2)cs1` [Example 3, 3-[2-(4,4-dimethyl-2-oxo-1,3-oxazolidin-3-yl)-1,3-thiazol-4-yl]benzonitrile] returned a melting point of 181 to 183 °C.

For `O=C1NCCN1c1nc(-c2ccc(Br)cc2)cs1` [Example 4, 1-[4-(4-Bromophenyl)-1,3-thiazol-2-yl]imidazolidin-2-one], the melting point fell in the range of 230 to 233 °C.

Consider `C[C@@H]1COC(=O)N1c1nc(-c2ccc(Br)cc2)cs1` [Example 1, (4R)-3-[4-(4-Bromophenyl)-1,3-thiazol-2-yl]-4-methyl-1,3-oxazolidin-2-one], for which the melting point was 197 to 199 °C.

Compound `CCC1(CC)COC(=O)N1c1nc(-c2ccc(C#N)cc2)cs1` [Example 2, 4-[2-(4,4-Diethyl-2-oxo-1,3-oxazolidin-3-yl)-1,3-thiazol-4-yl]benzonitrile] yielded a melting point of 145 to 147 °C.
